This passage reports IC50 results from US9809623B2, “α4β7 peptide monomer and dimer antagonists” (Protagonist Therapeutics, Inc., priority 2014, dated 2017).

Molecules are shown by their SMILES. Numbered stars: 1 amine (or outer) side, 2 acyl side, 3 side chain; on linkers, the order of the positions; unused ones are H or OH. Bridge positions count the residues as written; N and C are the ends. Square brackets hold non-standard residues; d marks the D form. Peptide text beside a SMILES is read from it. I, II: the chains in the order shown. 1Nal = N[C@@H](Cc1cccc2ccccc12)C(=O)O; 2Nal = N[C@@H](Cc1ccc2ccccc2c1)C(=O)O; Diglycolyl = O=C(COCC(=O)[*:2])[*:1]; NMeR = CN[C@@H](CCCNC(=N)N)C(=O)O; Tic = O=C(O)[C@@H]1Cc2ccccc2CN1; Pen = CC(C)(S)[C@H](N)C(=O)O

Chain of α4β7 (P13612 34-1032): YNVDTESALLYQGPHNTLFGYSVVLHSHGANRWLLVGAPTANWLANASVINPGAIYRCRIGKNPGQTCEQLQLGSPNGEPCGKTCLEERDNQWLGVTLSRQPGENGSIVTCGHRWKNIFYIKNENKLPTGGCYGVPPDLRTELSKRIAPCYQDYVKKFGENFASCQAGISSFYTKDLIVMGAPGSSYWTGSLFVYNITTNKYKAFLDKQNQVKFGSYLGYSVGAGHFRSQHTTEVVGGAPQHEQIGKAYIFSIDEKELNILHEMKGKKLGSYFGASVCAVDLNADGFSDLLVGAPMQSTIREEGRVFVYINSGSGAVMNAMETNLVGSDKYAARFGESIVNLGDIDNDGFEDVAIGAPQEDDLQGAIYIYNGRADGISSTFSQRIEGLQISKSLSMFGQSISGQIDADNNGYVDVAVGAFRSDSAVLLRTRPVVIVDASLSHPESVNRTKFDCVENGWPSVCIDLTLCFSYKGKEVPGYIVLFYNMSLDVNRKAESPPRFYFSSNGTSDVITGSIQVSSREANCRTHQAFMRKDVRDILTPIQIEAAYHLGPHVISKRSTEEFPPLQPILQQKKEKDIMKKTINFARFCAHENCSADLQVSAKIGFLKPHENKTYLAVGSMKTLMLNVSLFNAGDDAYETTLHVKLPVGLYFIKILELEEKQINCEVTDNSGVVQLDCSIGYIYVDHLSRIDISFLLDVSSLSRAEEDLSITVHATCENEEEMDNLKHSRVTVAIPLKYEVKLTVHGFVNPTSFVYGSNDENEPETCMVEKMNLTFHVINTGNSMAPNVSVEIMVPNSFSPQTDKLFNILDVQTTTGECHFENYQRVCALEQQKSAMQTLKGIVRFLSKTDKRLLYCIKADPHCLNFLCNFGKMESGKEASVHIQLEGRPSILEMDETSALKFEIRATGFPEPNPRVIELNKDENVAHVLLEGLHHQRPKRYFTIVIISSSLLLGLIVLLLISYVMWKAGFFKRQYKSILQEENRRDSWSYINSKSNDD
Chain of α4β7 (P26010 20-798): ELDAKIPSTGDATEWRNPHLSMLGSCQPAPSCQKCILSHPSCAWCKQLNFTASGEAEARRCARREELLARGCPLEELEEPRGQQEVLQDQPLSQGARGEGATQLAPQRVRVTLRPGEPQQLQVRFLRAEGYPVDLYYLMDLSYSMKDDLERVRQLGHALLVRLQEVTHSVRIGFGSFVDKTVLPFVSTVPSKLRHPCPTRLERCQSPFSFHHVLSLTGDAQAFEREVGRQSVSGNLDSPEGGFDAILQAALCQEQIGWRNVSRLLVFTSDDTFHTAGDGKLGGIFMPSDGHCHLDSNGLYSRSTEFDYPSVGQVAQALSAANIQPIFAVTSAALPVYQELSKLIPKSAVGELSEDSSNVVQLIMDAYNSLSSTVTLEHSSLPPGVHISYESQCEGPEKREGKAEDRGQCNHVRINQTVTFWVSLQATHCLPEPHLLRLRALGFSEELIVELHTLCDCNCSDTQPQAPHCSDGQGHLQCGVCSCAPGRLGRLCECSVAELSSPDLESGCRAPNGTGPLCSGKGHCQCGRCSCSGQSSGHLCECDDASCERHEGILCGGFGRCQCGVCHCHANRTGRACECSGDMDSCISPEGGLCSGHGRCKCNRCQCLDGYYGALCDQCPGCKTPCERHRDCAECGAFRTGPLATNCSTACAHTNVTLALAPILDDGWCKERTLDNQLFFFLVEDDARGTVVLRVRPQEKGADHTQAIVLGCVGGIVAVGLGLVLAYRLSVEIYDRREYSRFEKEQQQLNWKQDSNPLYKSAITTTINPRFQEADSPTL

The experiment deals with α4β7 (Homo sapiens, UniProt P13612+P26010). Kind of experiment: α4β7-MAdCAM Cell Adhesion Assay (RPMI 8866 human cells). Format: cell-based. Details: host or cells: RPMI 8866 human B lymphoblastoid cells. The following applies: Table 3-B, Potency (α4β7); range classes; read-out: α4β7 cell (Hu) IC50. The method, boiled down:
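Adhesion read-out: MTT absorbance at 570 nm minus no-cell wells, after three washes. Plates coated with rh MAdCAM-1/Fc received peptide dilutions plus 200,000 RPMI 8866 cells in Mn2+ (1 mM)-supplemented DMEM, 0.1% BSA, HEPES pH 7, incubated 30-45 min, 37 °C.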
Usually IC50 stands for the point on the concentration scale where inhibition reaches its midpoint. As for `CC(=O)N[C@@H]1C(=O)N(C)[C@@H](CCCNC(=N)N)C(=O)N[C@@H](CO)C(=O)N[C@@H](CC(=O)O)C(=O)N[C@@H]([C@@H](C)O)C(=O)N[C@@H](CC(C)C)C(=O)N[C@H](C(=O)N[C@@H](Cc2cccc3ccccc23)C(=O)N[C@H](Cc2ccccc2)C(=O)N[C@H](CCCCNC(=O)COCC(=O)NCCCC[C@@H](NC(=O)[C@@H](Cc2ccccc2)NC(=O)[C@H](Cc2cccc3ccccc23)NC(=O)[C@H]2NC(=O)[C@H](CC(C)C)NC(=O)[C@H]([C@@H](C)O)NC(=O)[C@H](CC(=O)O)NC(=O)[C@H](CO)NC(=O)[C@H](CCCNC(=N)N)N(C)C(=O)[C@@H](NC(C)=O)C(C)(C)SSC2(C)C)C(N)=O)C(N)=O)C(C)(C)SSC1(C)C` [compound 111] (I: Ac-[Pen][NMeR]SDTL[Pen][1Nal][dF][dK]-NH2 / II: Ac-[Pen][NMeR]SDTL[Pen][1Nal][dF][dK]-NH2; disulfide I:1-I:7, II:1-II:7; linker I:10-II:10 via Diglycolyl), the IC50 lay in the range of 0.1 to 0.5 µM.
Turning to `CC(=O)N[C@@H]1C(=O)N(C)[C@@H](CCCNC(=N)N)C(=O)N[C@@H](CO)C(=O)N[C@@H](CC(=O)O)C(=O)N[C@@H]([C@@H](C)O)C(=O)N[C@@H](CC(C)C)C(=O)N[C@H](C(=O)N[C@@H](Cc2cccc3ccccc23)C(=O)N[C@H](Cc2c[nH]cn2)C(=O)N[C@H](CCCCNC(=O)COCC(=O)NCCCC[C@@H](NC(=O)[C@@H](Cc2c[nH]cn2)NC(=O)[C@H](Cc2cccc3ccccc23)NC(=O)[C@H]2NC(=O)[C@H](CC(C)C)NC(=O)[C@H]([C@@H](C)O)NC(=O)[C@H](CC(=O)O)NC(=O)[C@H](CO)NC(=O)[C@H](CCCNC(=N)N)N(C)C(=O)[C@@H](NC(C)=O)C(C)(C)SSC2(C)C)C(N)=O)C(N)=O)C(C)(C)SSC1(C)C` [compound 112] (I: Ac-[Pen][NMeR]SDTL[Pen][1Nal][dH][dK]-NH2 / II: Ac-[Pen][NMeR]SDTL[Pen][1Nal][dH][dK]-NH2; disulfide I:1-I:7, II:1-II:7; linker I:10-II:10 via Diglycolyl), the IC50 is 0.05 to 0.1 µM.
In the case of `CC(=O)N[C@@H]1C(=O)N(C)[C@@H](CCCNC(=N)N)C(=O)N[C@@H](CO)C(=O)N[C@@H](CC(=O)O)C(=O)N[C@@H]([C@@H](C)O)C(=O)N[C@@H](CC(C)C)C(=O)N[C@H](C(=O)N[C@@H](Cc2cccc3ccccc23)C(=O)N[C@H](CC(C)C)C(=O)N[C@H](CCCCNC(=O)COCC(=O)NCCCC[C@@H](NC(=O)[C@@H](CC(C)C)NC(=O)[C@H](Cc2cccc3ccccc23)NC(=O)[C@H]2NC(=O)[C@H](CC(C)C)NC(=O)[C@H]([C@@H](C)O)NC(=O)[C@H](CC(=O)O)NC(=O)[C@H](CO)NC(=O)[C@H](CCCNC(=N)N)N(C)C(=O)[C@@H](NC(C)=O)C(C)(C)SSC2(C)C)C(N)=O)C(N)=O)C(C)(C)SSC1(C)C` [compound 113] (I: Ac-[Pen][NMeR]SDTL[Pen][1Nal][dL][dK]-NH2 / II: Ac-[Pen][NMeR]SDTL[Pen][1Nal][dL][dK]-NH2; disulfide I:1-I:7, II:1-II:7; linker I:10-II:10 via Diglycolyl), the IC50 lay within 0.5 to 1 µM.
As to `CC(=O)N[C@@H]1C(=O)N(C)[C@@H](CCCNC(=N)N)C(=O)N[C@@H](CO)C(=O)N[C@@H](CC(=O)O)C(=O)N[C@@H]([C@@H](C)O)C(=O)N[C@@H](CC(C)C)C(=O)N[C@H](C(=O)N[C@@H](Cc2cccc3ccccc23)C(=O)N[C@H](CCCNC(=N)N)C(=O)N[C@H](CCCCNC(=O)COCC(=O)NCCCC[C@@H](NC(=O)[C@@H](CCCNC(=N)N)NC(=O)[C@H](Cc2cccc3ccccc23)NC(=O)[C@H]2NC(=O)[C@H](CC(C)C)NC(=O)[C@H]([C@@H](C)O)NC(=O)[C@H](CC(=O)O)NC(=O)[C@H](CO)NC(=O)[C@H](CCCNC(=N)N)N(C)C(=O)[C@@H](NC(C)=O)C(C)(C)SSC2(C)C)C(N)=O)C(N)=O)C(C)(C)SSC1(C)C` [compound 114] (I: Ac-[Pen][NMeR]SDTL[Pen][1Nal][dR][dK]-NH2 / II: Ac-[Pen][NMeR]SDTL[Pen][1Nal][dR][dK]-NH2; disulfide I:1-I:7, II:1-II:7; linker I:10-II:10 via Diglycolyl), the IC50 lay within 0.1 to 0.5 µM.
Turning to `CC(=O)N[C@@H]1C(=O)N(C)[C@@H](CCCNC(=N)N)C(=O)N[C@@H](CO)C(=O)N[C@@H](CC(=O)O)C(=O)N[C@@H]([C@@H](C)O)C(=O)N[C@@H](CC(C)C)C(=O)N[C@H](C(=O)N[C@@H](Cc2cccc3ccccc23)C(=O)N2Cc3ccccc3C[C@H]2C(=O)N[C@H](CCCCNC(=O)COCC(=O)NCCCC[C@@H](NC(=O)[C@@H]2Cc3ccccc3CN2C(=O)[C@H](Cc2cccc3ccccc23)NC(=O)[C@H]2NC(=O)[C@H](CC(C)C)NC(=O)[C@H]([C@@H](C)O)NC(=O)[C@H](CC(=O)O)NC(=O)[C@H](CO)NC(=O)[C@H](CCCNC(=N)N)N(C)C(=O)[C@@H](NC(C)=O)C(C)(C)SSC2(C)C)C(N)=O)C(N)=O)C(C)(C)SSC1(C)C` [compound 115] (I: Ac-[Pen][NMeR]SDTL[Pen][1Nal][Tic][dK]-NH2 / II: Ac-[Pen][NMeR]SDTL[Pen][1Nal][Tic][dK]-NH2; disulfide I:1-I:7, II:1-II:7; linker I:10-II:10 via Diglycolyl), the IC50 lay within 0.1 to 0.5 µM.
Take `CC(=O)N[C@@H]1C(=O)N(C)[C@@H](CCCNC(=N)N)C(=O)N[C@@H](CO)C(=O)N[C@@H](CC(=O)O)C(=O)N[C@@H]([C@@H](C)O)C(=O)N[C@@H](CC(C)C)C(=O)N[C@H](C(=O)N[C@@H](Cc2cccc3ccccc23)C(=O)N[C@@H](C(=O)N[C@H](CCCCNC(=O)COCC(=O)NCCCC[C@@H](NC(=O)[C@H](NC(=O)[C@H](Cc2cccc3ccccc23)NC(=O)[C@H]2NC(=O)[C@H](CC(C)C)NC(=O)[C@H]([C@@H](C)O)NC(=O)[C@H](CC(=O)O)NC(=O)[C@H](CO)NC(=O)[C@H](CCCNC(=N)N)N(C)C(=O)[C@@H](NC(C)=O)C(C)(C)SSC2(C)C)[C@H](C)O)C(N)=O)C(N)=O)[C@H](C)O)C(C)(C)SSC1(C)C` [compound 116] (I: Ac-[Pen][NMeR]SDTL[Pen][1Nal][dT][dK]-NH2 / II: Ac-[Pen][NMeR]SDTL[Pen][1Nal][dT][dK]-NH2; disulfide I:1-I:7, II:1-II:7; linker I:10-II:10 via Diglycolyl): the IC50 fell in the range of 0.05 to 0.1 µM.
With `CC(=O)N[C@@H]1C(=O)N(C)[C@@H](CCCNC(=N)N)C(=O)N[C@@H](CO)C(=O)N[C@@H](CC(=O)O)C(=O)N[C@@H]([C@@H](C)O)C(=O)N[C@@H](CC(C)C)C(=O)N[C@H](C(=O)N[C@@H](Cc2ccc3ccccc3c2)C(=O)N[C@H](Cc2ccccc2)C(=O)N[C@H](CCCCNC(=O)COCC(=O)NCCCC[C@@H](NC(=O)[C@@H](Cc2ccccc2)NC(=O)[C@H](Cc2ccc3ccccc3c2)NC(=O)[C@H]2NC(=O)[C@H](CC(C)C)NC(=O)[C@H]([C@@H](C)O)NC(=O)[C@H](CC(=O)O)NC(=O)[C@H](CO)NC(=O)[C@H](CCCNC(=N)N)N(C)C(=O)[C@@H](NC(C)=O)C(C)(C)SSC2(C)C)C(N)=O)C(N)=O)C(C)(C)SSC1(C)C` [compound 117] (I: Ac-[Pen][NMeR]SDTL[Pen][2Nal][dF][dK]-NH2 / II: Ac-[Pen][NMeR]SDTL[Pen][2Nal][dF][dK]-NH2; disulfide I:1-I:7, II:1-II:7; linker I:10-II:10 via Diglycolyl), the IC50 is 0.1 to 0.5 µM.
